Assay results from US5508275A, “Lipid-selective antioxidants and their preparation and use” (Hoechst Aktiengesellschaft, priority 1990, dated 1996).
Where a name gives a salt, the structure may show the parent alone.

How the values were obtained:
[1] = Solubility in water and olive oil (Method III)
Experimental: a) Preparation of olive oil or aqueous solutions. 1 ml of olive oil or I ml of double-distilled water (or dilute NaOH pH=7.6) was added to 1 mg or 10 mg or 50 mg of the respective compound at 37° C. and it was checked whether a clear solution was obtained. The optionally centrifuged and decanted olive oil solutions were heated for 5 minutes using a Bunsen burner and the degree of browning of the olive oil was determined. […] Samples having poor protective action are given a (*) in the table (see below).

[2] = tested on: thrombus formation in rats; assay: Laser-induced thrombosis in rats in vivo (Method VIII); parameters: species or system rat; details: 30 mg/kg oral, laser induction 60 min after administration
Experimental: The experimental procedure was carried out in every detail as described in U.S. Pat. No. 4,694,024. Laser induction took place 60 min after oral administration of the antioxidants.

[3] = Use as an additive in frying fat: color change of butter (Method II); details: 1% (weight/weight) in butter
Experimental: Use as an additive in frying fat: Samples of commercially available German non-blended butter were melted and in each case 1% (weight/weight) of BHT (=butylated hydroxytoluene) or 2,6-di-tert.-butyl-4-(7-nonynoyl)-phenol [=compound according to Example 17] or ethyl 2-(3,5-di-tert.-butyl-4-hydroxybenzyl)-3-oxo-docosanoate [=compound according to Example 18] or N-octadecyl-DL-α-lipoic acid amide [=compound according to Example 52] was added and the mixture was used in the customary manner as frying fat. […] The better protective action of the […] probably comes about as a result of their lipophilic side chains and, therefore, improved lipophilic interaction. The advantageous action of N-octadecyl-DL-α-lipoic acid amide is particularly surprising, although this preparation has no recognizable antioxidative component.

[4] = olive oil, organic solvent or mixture

Row | solubility [1, 4] [µg/mL] | solubility ([1]; water) [µg/mL] | SMILES | Reduction of thrombus formation [2] [%] | color change of frying fat after the frying procedure [3] | suitability for use in aqueous oil emulsions owing to solubility properties [1]
1 | < 100 | > 10000 | O=C(O)CCCC[C@@H](S)CCS (racemic) [Dihydrolipoic acid, Na salt, Dihydrolipoic acid, reference compound] |  |  | 
2 | < 100 | > 10000 | O=C(O)C(S)C(S)C(=O)O (centres unmarked) [2,3-Mercaptosuccinic acid, reference compound] |  |  | 
3 |  |  | CC(C)(Sc1cc(C(C)(C)C)c(O)c(C(C)(C)C)c1)Sc1cc(C(C)(C)C)c(O)c(C(C)(C)C)c1 [4,4'-(Isopropylidenedithio)bis[2,6-di-tert.-butylphenol], reference compound] | 6 |  | 
4 | < 100 | > 10000 | Cc1c(C)c2c(c(C)c1O)CCC(C)(C(=O)O)O2 (centres unmarked) [6-Hydroxy-2,5,7,8-tetramethylchroman-2-carboxylic acid, reference compound] |  |  | 
5 | > 10000 | < 100 | Cc1cc(C(C)(C)C)c(O)c(C(C)(C)C)c1 [BHT, butylated hydroxytoluene, reference compound] |  | transformed into a viscous, dark brown material | 
6 | < 100 | > 10000 | O[C@H](CS)[C@@H](O)CS [Dithioerythritol, reference compound] |  |  | 
7 | > 10000 | > 100 | CCCCCCNC(=O)C1(C)CCc2c(C)c(O)c(C)c(C)c2O1 (centres unmarked) [Example 4] |  |  | 
8 | > 10000 | < 100 | CCCCCCC(=O)NCCCNC(=O)C1(C)CCc2c(C)c(O)c(C)c(C)c2O1 (centres unmarked) [Example 5] |  |  | 
9 | > 10000 | < 100 | CCCCCCCCCCCCCCCCCCNC(=O)C1(C)CCc2c(C)c(O)c(C)c(C)c2O1 (centres unmarked) [Example 6] |  |  | 
10 | > 10000 | < 100 | CCCCCCCCCCCCCCCC(=O)NCCCNC(=O)C1(C)CCc2c(C)c(O)c(C)c(C)c2O1 (centres unmarked) [Example 7] |  |  | 
11 | > 10000 | < 100 | Cc1c(C)c2c(c(C)c1O)CCC(C)(C(=O)NC1CCCCC1)O2 (centres unmarked) [Example 8] |  |  | 
12 | > 50000 | < 100 | CCCCCCC#CC(=O)c1cc(C(C)(C)C)c(O)c(C(C)(C)C)c1 [Example 17] |  | substantially lower color change | 
13 | > 50000 | < 100 | CCCCCCCCCCCCCCCCCCCC(=O)C(Cc1cc(C(C)(C)C)c(O)c(C(C)(C)C)c1)C(=O)OCC (centres unmarked) [Example 18, ethyl 2-(3,5-di-tert.-butyl-4-hydroxybenzyl)-3-oxo-docosanoate] |  | substantially lower color change | 
14 | > 50000 | < 100 | CC(C)(C)c1cc(C2SCCC(CCCCC(=O)O)S2)cc(C(C)(C)C)c1O (centres unmarked) [Example 19] |  |  | 
15 | > 50000 | < 100 | CC(C)(C)OC(=O)CCCCC(CCSCc1cc(C(C)(C)C)c(O)c(C(C)(C)C)c1)SCc1cc(C(C)(C)C)c(O)c(C(C)(C)C)c1 (centres unmarked) [Example 20] |  |  | 
16 | > 50000 | < 100 | CCCCCCCCCCCCCCCCCCOCC(O)COCc1cc(C(C)(C)C)c(O)c(C(C)(C)C)c1 (centres unmarked) [Example 21] |  |  | 
17 | > 50000 | < 100 | CCCCCCCCCCCCCCCCCCOCC(CO)OC(=O)c1cc(C(C)(C)C)c(O)c(C(C)(C)C)c1 (centres unmarked) [Example 22] |  |  | 
18 | > 50000 | < 100 | CCCCCCCCCCCCCCCCCCOCC(O)COC(=O)c1cc(C(C)(C)C)c(O)c(C(C)(C)C)c1 (centres unmarked) [Example 23] |  |  | 
19 | > 50000 | < 100 | CCCCCCCCCCCCCCCCCCCC(O)C(Cc1cc(C(C)(C)C)c(O)c(C(C)(C)C)c1)C(=O)OCC (centres unmarked) [Example 24] |  |  | 
20 | > 50000 | < 100 | CCCCCCCCCCCCCCCCCCCC(O)C(CO)Cc1cc(C(C)(C)C)c(O)c(C(C)(C)C)c1 (centres unmarked) [Example 25] |  |  | 
21 | > 50000 | < 100 | CCCCCCCCCCCCCCCCCCCC1OC(C)(C)OCC1Cc1cc(C(C)(C)C)c(O)c(C(C)(C)C)c1 (centres unmarked) [Example 26] |  |  | 
22 | > 1000 | > 10000 | CCCCCCCCCCCCCCCCCCCC(O)C(Cc1cc(C(C)(C)C)c(O)c(C(C)(C)C)c1)C(=O)O (centres unmarked) [Example 27] |  |  | 
23 | > 50000 | < 100 | CCCCCCCCCCCCCCCCCCCC(=O)C(=Cc1cc(C(C)(C)C)c(O)c(C(C)(C)C)c1)C(=O)OCC [Example 28] |  |  | 
24 | > 10000 | > 10000 | CCCCCCCCCCCCCCCCCCC(COCCOC1=C(O)C(C(O)CO)OC1=O)COCCOC1=C(O)C(C(O)CO)OC1=O (centres unmarked) [Example 36] | 17 |  | outstandingly suitable for use in aqueous oil emulsions
25 | < 100 | > 10000 | O=C(O)c1cc(O)c(O)c(O)c1 [Gallic acid, reference compound] |  |  | 

Row | SMILES | solubility [1, 4] [µg/mL] | solubility ([1]; water) [µg/mL] | Reduction of thrombus formation [2] [%] | color change of frying fat after the frying procedure [3] | suitability for use in aqueous oil emulsions owing to solubility properties [1]
26 | CCCCCCCCCCCCCCCC(=O)OC[C@H](O)[C@H]1OC(=O)C(O)=C1O [Ascorbyl palmitate, reference compound] | > 100 | < 100 |  |  | 
27 | Cc1c(C)c2c(c(C)c1O)CCC(C)(C(=O)NCCCNC(=O)CC[C@@H](C)[C@H]1CC[C@H]3[C@@H]4[C@H](O)C[C@@H]5C[C@H](O)CC[C@]5(C)[C@H]4C[C@H](O)[C@]13C)O2 (some centres unmarked) [Example 1] | > 10000 | > 100 | 16 |  | 
28 | Cc1c(C)c2c(c(C)c1O)CCC(C)(C(=O)NCCO[C@H]1CC[C@@]3(C)[C@@H](C1)C[C@@H](O)[C@@H]1[C@@H]3C[C@H](O)[C@]3(C)[C@@H]([C@H](C)CCC(=O)O)CC[C@@H]13)O2 (some centres unmarked) [Example 3] | > 1000 | < 100 | 11 |  | 
29 | CC(C)CCC[C@@H](C)[C@H]1CC[C@H]2[C@@H]3CC=C4C[C@@H](OCCOCc5cc(C(C)(C)C)c(O)c(C(C)(C)C)c5)CC[C@]4(C)[C@H]3CC[C@]12C [Example 13] | > 50000 | < 100 | 17 |  | 
30 | CC(C)CCC[C@@H](C)[C@H]1CC[C@H]2[C@@H]3CC=C4C[C@@H](OCCOC5=C(O)[C@@H]([C@@H](O)CO)OC5=O)CC[C@]4(C)[C@H]3CC[C@]12C [Example 33] | > 1000 | < 100 | 13 |  | 
31 | CCCCCCCCCCCCCCCCCC(=O)OC[C@H](O)[C@H]1OC(=O)C(OP(=O)(OCC)OCC)=C1O [Example 34] | > 1000 | < 100 |  |  | 
32 | CCCCCCCCCCCCCCCCCC(=O)OC[C@H](OC(=O)CCCCCCCCCCCCCCCCC)[C@H]1OC(=O)C(OP(=O)(OCC)OCC)=C1O [Example 35] | > 1000 | < 100 |  |  | 
33 | CCCCCCCCCCCCCCCCCCP(=O)(OC1=C(O)C([C@@H](O)CO)OC1=O)OC1=C(O)C([C@@H](O)CO)OC1=O (some centres unmarked) [Example 37] | > 1000 | > 10000 |  |  | 
34 | CC(C)CCCC(C)C1CC[C@H]2C3CC=C4CC(OC(=O)CCCCC(S)CCS)CC[C@]4(C)[C@H]3CC[C@]12C (some centres unmarked) [Example 46] | > 50000 | < 100 |  |  | 
35 | CC(CCC(=O)NCCCNC(=O)CCCCC(S)CCS)C1CC[C@H]2C3CC[C@@H]4C[C@H](O)CC[C@]4(C)[C@H]3C[C@H](O)[C@]12C (some centres unmarked) [Example 48] | > 50000 | < 100 |  |  | 
36 | CC(C)CCCC(C)C1CC[C@H]2C3CC=C4CC(OC(=O)CCCCC5CCSS5)CC[C@]4(C)[C@H]3CC[C@]12C (some centres unmarked) [Example 53] | > 50000 | < 100 |  |  | 
